# System: prostate
# Test: Photodynamic therapy of the canine prostate after intraprostatic injection of QLT0074 and transurethral 690 nm light
# Type: in vivo, dogs
# Method: Eight mature, intact, mixed-breed dogs were premedicated with butorphanol (0.4 mg per kilogram of body weight), acepromazine (0.1 mg/kg), and atropine (0.4 mg/kg), all given by intramuscular injection. Anesthesia was induced with intravenous thiopental sodium (8 mg per 0.4536 kilograms of body weight) and maintained with inhaled isoflurane and oxygen (dosage as required for anesthetic effect). QLT0074 for injection (A-EA6 in U.S. Pat. No. 5,929,105) was reconstituted with Water for Injection to give a stock concentration of 2.0 mg/ml and then diluted with 5% Dextrose in water to a concentration 0.2 mg/ml. Injections of the drug were then delivered to the prostate using a commercially available transurethral injection device (InjecTx™, San Jose, Calif., USA). Two injections of 0.5 ml were given to each left lobe of the prostate and 2 injections of 1.0 ml were given to each right lobe of the prostate. The activation-energy delivery device used comprised: • a cylindrical fibre optic with a 200 μm diameter core, a 25 mm long diffuser, and a power rating of 175 mW/cm (maximum power load, 437.5 mW), • a reflective-cap fibre-centering balloon catheter with a 20 mm treatment window supplied with a guidewire for positioning the device in the urethra, and • a 3 W 690 nm red-light diode laser (AOC, South Plainfield, N.J., USA). The treatment assembly was positioned in the urethra using ultrasonic guidance. Ultrasound was also used to position the needles for four […] intraprostatic injections (two per lobe separated by longitudinally by 1 cm). Each injection was at a depth of between 8 and 12 mm into the prostate. The activation energy was delivered 15 minutes after the last injection. A dose of either 25 J/cm^2, 50 J/cm^2, or 100 J/cm^2 was delivered. […] After seven days the dogs were euthanased and the prostates were harvested.
# [1] = prostates harvested after seven days, QLT0074 0.2 mg/ml intraprostatic, injection depth 8-12 mm, 25, 50 or 100 J/cm^2
structure (smiles),measurement,setting,value
"C=Cc1c(C)c2cc3nc(cc4[nH]c(cc5nc(cc1[nH]2)C(C)=C5CCC(=O)OCCO)c(CCC(=O)OCCO)c4C)[C@@]1(C)C3=CC=C(C(=O)OC)[C@H]1C(=O)OC [QLT0074, Lemuteporfin]","Bowel, bladder, and prostate sizes","dogs euthanased after seven days, QLT0074 0.2 mg/ml intraprostatic, 25, 50 or 100 J/cm^2",within normal ranges
same,Clinical appearance of the dogs during observation,"mature intact mixed-breed dogs, QLT0074 0.2 mg/ml, 2 x 0.5 ml left lobe and 2 x 1.0 ml right lobe, 690 nm light 25, 50 or 100 J/cm^2 15 minutes after last injection, observed for one week",clinically normal
same,PDT-associated damage in the urethra,[1],no significant PDT-associated damage
same,PDT-associated tissue damage in the target tissue (prostates),[1],evidence of PDT-associated tissue damage in the target tissue
